The values that follow come from ChEMBL document CHEMBL1157539, “Thousands of chemical starting points for antimalarial lead identification” (Nature, 2010).

This assay relates to Plasmodium falciparum. The experiment in a line: GSK_TCMDC: Inhibition of Plasmodium falciparum 3D7 in whole erythrocytes, using parasite LDH activity as an index of growth. In kind it is functional, organism-based. As to conditions: Plasmodium falciparum, 3D7.
`COCCN1CCC(N(Cc2ccc(-c3ccc(C(F)(F)F)cc3)cc2)C(=O)Cn2c(CCc3cccc(F)c3F)cc(=O)c3c2CCC3)CC1` registered an XC50 of 1.32 µM.
Next, `COC(=O)Nc1cc(C(F)(F)F)ccc1N1CCCC(NS(=O)(=O)c2ccc(C(C)(C)C)cc2)C1` (centres undefined): 0.38 µM; `O=C(/C=C/c1ccc(Cl)c(Cl)c1)N1CCC(CN2CCC(Cc3cc4ccccc4[nH]3)CC2)CC1`: 0.63 µM.
As for `CC[C@H]1CN2CC[C@H]1C[C@H]2[C@H](O)c1cc(-c2ccccc2F)nc2ccc(OC)cc12`, the figure is 0.0789 µM; as for `COC(=O)c1ccc(CC(C)NCC(O)c2cccc(C(F)(F)F)c2)cc1F` (centres undefined), 1.06 µM.
Next, `COc1ccc2[nH]c(C)cc(=NN=Cc3cccc(Cl)c3)c2c1`: 0.632 µM.
`Oc1ccc(CCNc2nc(NCc3ccccc3-c3cccc(Cl)c3)nc(N3CCNCC3)n2)cc1` gave an XC50 of 1.28 µM.
Next, `CCCC(=O)NC(c1cccs1)c1cc(Cl)c2cccnc2c1O` (centres undefined): 0.848 µM.
In turn, `Nc1ncc(Cc2ccc3c(ccc4ccccc43)c2)c(N)n1` gave an XC50 of 0.758 µM.
For `O=C(NCCc1ccccc1)N(Cc1ccc(-c2cccc(CN3CCNCC3)c2)cc1)C1CCN(Cc2ccccc2)CC1`, the XC50 stood at 1.36 µM.
The molecule `COc1ccc(CNCc2cccc(-c3ccc(-c4nc5cc(C(F)(F)F)ccc5[nH]4)cc3)c2)cc1` returned an XC50 of 0.126 µM.
As to `COc1ccc(CSC2CCCCC23NC(=S)NC3=S)cc1` (centres undefined), the XC50 stood at 0.85 µM.
As for `c1ccc(C(c2ccccc2)N2CCN(C(c3cccnc3)c3nnnn3C3CCCC3)CC2)cc1` (centres undefined), the figure is 1.08 µM.
As for `COc1ccc2nccc(N3CCC(CCNCc4cc5c(cn4)OCCO5)CC3)c2n1`, the figure is 0.224 µM; as for `Cc1ccc(NC(=O)c2cccc(CN3CCCN(CC4CCCCC4)CC3)c2)cc1F`, 0.596 µM.
Next, `Cc1cccc2nc(-c3ccc(-c4ccc(CNCc5ccccc5)cc4)s3)[nH]c12`: 0.208 µM.
`Cc1cc(Nc2cccc(Cl)c2)nc2ccc(NC(=O)c3ccc(=O)[nH]c3)cc12` yielded an XC50 of 0.995 µM.
Take `N#CCSc1nnc(-c2ccccc2)c2ccccc12`: the XC50 turned out to be 0.723 µM.
Next, `CCOc1ccc2c(=NN=Cc3ccc(OC)c(OC)c3)cc(C)[nH]c2c1`: 0.7 µM; `COc1ccc(-c2cccc(NC(=O)c3ccc(C#N)cc3)c2)cc1CN1CCN(C)CC1`: 0.99 µM.
As for `Cc1cc(F)ccc1N(c1nc(-c2cc(Cl)ccc2Cl)cs1)C1CCNC1` (centres undefined), the figure is 1.01 µM.
With `CCOc1cccc(C(=O)Nc2cccc(CN3CCCN(Cc4cccc(O)c4)CC3)c2)c1`, the XC50 is 1.09 µM.
Turning to `CC[C@H]1CN2CC[C@@H]1C[C@H]2[C@H](O)c1cc[n+]([O-])c2ccc(OC)cc12`, the XC50 was 0.748 µM.
`CCCSc1nc2c(c(=O)n1Cc1ccco1)C1(CCCCC1)Cc1ccccc1-2` showed an XC50 of 0.424 µM.
`O=C(NCCN1CCCC1)c1cccc(Nc2nccc(Nc3ccc(Oc4ccccc4)cc3)n2)c1` yielded an XC50 of 0.654 µM.
`COc1ccc(C(C(=O)NC2CCN(C[C@H](O)c3ccnc4ccc(OC)cc34)CC2)N2CCN(c3ccc(F)cc3)CC2)cc1` (some centres undefined) yielded an XC50 of 0.214 µM.
As for `CC(C)(C)c1ccc(-c2ccccc2CNC(=O)c2cccc(O)c2)cc1`, the figure is 0.267 µM; as for `Cc1ccccc1OCC(=O)Nc1ccc(-c2nc3cc4ccccc4cc3[nH]2)cc1`, 0.753 µM.
Next, `O=C(NCC1CCN(Cc2ccc3c(c2)OCCO3)C1)c1cc(-c2cccc(C(F)(F)F)c2)cs1` (centres undefined): 0.978 µM; `CC(=O)Nc1ccc(C(=O)Nc2cccc(-c3ccc(-c4nc5cc(C(F)(F)F)ccc5[nH]4)s3)c2)cn1`: 0.126 µM; `NCC(NC(=O)c1ccc(-c2c[nH]c3ncccc23)s1)c1ccccc1` (centres undefined): 0.546 µM.
The molecule `COc1cc(CNCCCCCCNCc2cc(OC)c(OC)c3ccccc23)c2ccccc2c1OC` returned an XC50 of 0.235 µM.
As to `CCN1CCN(c2cc(C)c3cc(NC(=O)c4cc(OC)cc(OC)c4)ccc3n2)CC1`, the XC50 was found to be 0.156 µM.
For the molecule `Cc1ccccc1Nc1nc(NCCc2ccccc2)nc2ccccc12`, the XC50 was 1.26 µM.
